Reference: patent US8435978B2, “Substituted sulfonamide compounds” (Gruenenthal GmbH, priority 2006, dated 2013)
Structures can show the parent of a compound that is named as a salt.

What was measured:
B1R receptor of the rat = target: T1, B1R receptor of the rat (Rattus norvegicus, UniProt P97583); test: Functional study on the bradykinin receptor 1 (B1R), FLIPR Ca2+ assay, rB1R cells; type: cell-based; conditions: agonist Des-Arg9-bradykinin 100 nM, % inhibition compared with the maximum achievable inhibition; for inhibition at 10 µM: CHO-K1, test substance 10 μM, read-out: B1R Antagonism, rat [10 μM] % Inhibition
T1 construct: host or cells: CHO K1 cells (Chinese hamster ovary), stably transfected
T1 sequence (P97583 1-337): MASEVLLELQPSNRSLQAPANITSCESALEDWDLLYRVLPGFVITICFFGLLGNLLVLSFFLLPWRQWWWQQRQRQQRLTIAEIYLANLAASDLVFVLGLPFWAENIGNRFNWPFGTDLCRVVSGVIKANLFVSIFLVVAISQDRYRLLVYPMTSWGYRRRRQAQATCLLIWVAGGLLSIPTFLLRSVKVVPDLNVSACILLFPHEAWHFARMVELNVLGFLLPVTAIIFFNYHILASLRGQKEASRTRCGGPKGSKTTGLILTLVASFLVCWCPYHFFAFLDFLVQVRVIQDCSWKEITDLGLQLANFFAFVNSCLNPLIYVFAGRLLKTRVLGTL
How it was run: (§1)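 CHO K1 cells stably expressing human or rat B1R, Fluo-4-loaded; test compound 10 μM added first (activation % vs agonist), then after 10 min 0.5 nM Lys-Des-Arg9-bradykinin (human) or 100 nM Des-Arg9-bradykinin (rat). Ca2+ peak fluorescence by FLIPR; % inhibition relative to maximum achievable inhibition.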

human B1R receptor = target: T2, human B1R receptor (Homo sapiens, UniProt P46663); test: Functional study on the bradykinin receptor 1 (B1R), FLIPR Ca2+ assay, hB1R cells; type: cell-based; conditions: agonist Lys-Des-Arg9-bradykinin 0.5 nM, % inhibition compared with the maximum achievable inhibition; for inhibition at 10 µM: CHO-K1, test substance 10 μM, read-out: B1R Antagonism, human [10 μM] % Inhibition
T2 construct: host or cells: CHO K1 cells (Chinese hamster ovary), stably transfected
T2 sequence (P46663 1-353): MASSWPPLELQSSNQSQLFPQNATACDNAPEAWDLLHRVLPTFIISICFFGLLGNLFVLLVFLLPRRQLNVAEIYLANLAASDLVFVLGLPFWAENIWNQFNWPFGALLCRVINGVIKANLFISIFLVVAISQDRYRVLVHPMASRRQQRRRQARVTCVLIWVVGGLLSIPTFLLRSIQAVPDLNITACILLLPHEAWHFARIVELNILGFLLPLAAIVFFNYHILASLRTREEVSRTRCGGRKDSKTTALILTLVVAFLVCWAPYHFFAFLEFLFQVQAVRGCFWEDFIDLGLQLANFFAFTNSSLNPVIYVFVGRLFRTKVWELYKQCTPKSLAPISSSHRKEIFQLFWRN
How it was run: as §1

Row | Structure (SMILES) | inhibition at 10 µM (B1R receptor of the rat) | inhibition at 10 µM (human B1R receptor) | B1R Antagonism, rat [10 μM] % Inhibition (B1R receptor of the rat; test substance 10 μM, rB1R CHO K1 cells) | B1R Antagonism, human [10 μM] % Inhibition (human B1R receptor; test substance 10 μM, hB1R CHO K1 cells)
1 | COc1cc(C)c(S(=O)(=O)N2CCCCC2COCC(=O)N2CCC(Oc3cccnc3)CC2)c(C)c1 (centres unmarked) [Example 165, 2-((1-(4-methoxy-2,6-dimethylphenylsulfonyl)piperidin-2-yl)methoxy)-1-(4-(pyridin-3-yloxy)piperidin-1-yl)ethanone] | 96.8% | 97.1% | – | –
2 | COc1cc(C)c(S(=O)(=O)N2CCCCC2COCC(=O)N2CCN(Cc3ccc4nccnc4c3)CC2)c(C)c1 (centres unmarked) [Example 166, 2-((1-(4-methoxy-2,6-dimethylphenylsulfonyl)piperidin-2-yl)methoxy)-1-(4-(quinoxalin-6-ylmethyl)piperazin-1-yl)ethanone] | 99.3% | 99.4% | – | –
3 | COc1cc(C)c(S(=O)(=O)N2CCCC[C@H]2COCC(=O)N2CCN(C3CCN(C)CC3)CC2)c(C)c1 [Example 167, (S)-2-((1-(4-methoxy-2,6-dimethylphenylsulfonyl)piperidin-2-yl)methoxy)-1-(4-(1-methylpiperidin-4-yl)piperazin-1-yl)ethanone] | 101% | 102% | – | –
4 | COc1cc(C)c(S(=O)(=O)N2CCCCC2COCC(=O)N2CCN(c3ccc4c(N5CCCC5)ncnc4c3)CC2)c(C)c1 (centres unmarked) [Example 168, 2-((1-(4-methoxy-2,6-dimethylphenylsulfonyl)piperidin-2-yl)methoxy)-1-(4-(4-(pyrrolidin-1-yl)quinazolin-7-yl)piperazin-1-yl)ethanone] | 98.4% | 93.8% | – | –
5 | Cc1cc(F)cc(C)c1S(=O)(=O)N1CCCCC1COCC(=O)N1CCN(C2CCN(C)CC2)CC1 (centres unmarked) [Example 169, 2-((1-(4-fluoro-2,6-dimethylphenylsulfonyl)piperidin-2-yl)methoxy)-1-(4-(1-methylpiperidin-4-yl)piperazin-1-yl)ethanone dihydrochloride] | 101% | 100% | – | –
6 | CN1CCC(N2CCN(C(=O)COCC3CCCCN3S(=O)(=O)c3cc(Cl)sc3Cl)CC2)CC1 (centres unmarked) [Example 170, 2-((1-(2,5-dichlorothiophen-3-ylsulfonyl)piperidin-2-yl)methoxy)-1-(4-(1-methylpiperidin-4-yl)piperazin-1-yl)ethanone dihydrochloride] | 97.8% | 101% | – | –
7 | CN1CCC(N2CCN(C(=O)COCC3CCCCN3S(=O)(=O)c3cc4ccccc4s3)CC2)CC1 (centres unmarked) [Example 171, 2-((1-(benzo[b]thiophen-2-ylsulfonyl)piperidin-2-yl)methoxy)-1-(4-(1-methylpiperidin-4-yl)piperazin-1-yl)ethanone] | 82.8% | 102% | – | –
8 | Cc1cc(S(=O)(=O)N2CCCCC2COCC(=O)N2CCN(C3CCN(C)CC3)CC2)c(C)s1 (centres unmarked) [Example 172, 2-((1-(2,5-dimethylthiophen-3-ylsulfonyl)piperidin-2-yl)methoxy)-1-(4-(1-methylpiperidin-4-yl)piperazin-1-yl)ethanone] | 85.2% | 101% | – | –
9 | CN1CCC(N2CCN(C(=O)COCC3CCCCN3S(=O)(=O)c3cccc(Cl)c3Cl)CC2)CC1 (centres unmarked) [Example 173, 2-((1-(2,3-dichlorophenylsulfonyl)piperidin-2-yl)methoxy)-1-(4-(1-methylpiperidin-4-yl)piperazin-1-yl)ethanone dihydrochloride] | 101% | 101% | – | –
10 | COc1ccc(S(=O)(=O)N2CCCCC2COCC(=O)N2CCN(C3CCN(C)CC3)CC2)c2ccccc12 (centres unmarked) [Example 174, 2-((1-(4-methoxynaphthalen-1-ylsulfonyl)piperidin-2-yl)methoxy)-1-(4-(1-methylpiperidin-4-yl)piperazin-1-yl)ethanone dihydrochloride] | 98% | 101% | – | –
11 | CN1CCC(N2CCN(C(=O)COCC3CCCCN3S(=O)(=O)c3cccc4cccnc34)CC2)CC1 (centres unmarked) [Example 175, 1-(4-(1-methylpiperidin-4-yl)piperazin-1-yl)-2-((1-(quinolin-8-ylsulfonyl)piperidin-2-yl)methoxy)ethanone dihydrochloride] | 86.3% | 103% | – | –
12 | CN1CCC(N2CCN(C(=O)COCC3CCCCN3S(=O)(=O)c3cccc4cnccc34)CC2)CC1 (centres unmarked) [Example 176, 2-((1-(isoquinolin-5-ylsulfonyl)piperidin-2-yl)methoxy)-1-(4-(1-methylpiperidin-4-yl)piperazin-1-yl)ethanone dihydrochloride] | 36.5% | -24.8% | – | –
13 | COc1cc(C)c(S(=O)(=O)N2CCCC[C@@H]2COCC(=O)N2CCN(C3CCN(C)CC3)CC2)c(C)c1 [Example 177, (R)-2-((1-(4-methoxy-2,6-dimethylphenylsulfonyl)piperidin-2-yl)methoxy)-1-(4-(1-methylpiperidin-4-yl)piperazin-1-yl)ethanone dihydrochloride] | 100% | 104% | – | –
14 | CN1CCC(N2CCN(C(=O)COCC3Cc4ccccc4CN3S(=O)(=O)c3ccc4ccccc4c3)CC2)CC1 (centres unmarked) [Example 178, 1-(4-(1-methylpiperidin-4-yl)piperazin-1-yl)-2-((2-(naphthalen-2-ylsulfonyl)-1,2,3,4-tetrahydroisoquinolin-3-yl)methoxy)ethanone dihydrochloride] | 99.8% | 102% | – | –
15 | CN1CCC(N2CCN(C(=O)COCC3CCCCN3S(=O)(=O)c3ccc4c(c3)CCCC4)CC2)CC1 (centres unmarked) [Example 179, 1-(4-(1-methylpiperidin-4-yl)piperazin-1-yl)-2-((1-(5,6,7,8-tetrahydronaphthalen-2-ylsulfonyl)piperidin-2-yl)methoxy)ethanone dihydrochloride] | 100% | 104% | – | –
16 | COc1cc(C)c(S(=O)(=O)N2CCC[C@H]2COCC(=O)N2CCN(C3CCN(C)CC3)CC2)c(C)c1 [Example 180, (S)-2-((1-(4-methoxy-2,6-diimethylphenylsulfonyl)pyrrolidin-2-yl)methoxy)-1-(4-(1-methylpiperidin-4-yl)piperazin-1-yl)ethanone] | – | – | 98.6% | 104%
17 | COc1cc(C)c(S(=O)(=O)N2CCC[C@H]2COCC(=O)N2CCN(CC3CCN(C)CC3)CC2)c(C)c1 [Example 181, (S)-2-((1-(4-methoxy-2,6-dimethylphenylsulfonyl)pyrrolidin-2-yl)methoxy)-1-(4-((1-methylpiperidin-4-yl)methyl)piperazin-1-yl)ethanone] | 98.5% | 105% | – | –
18 | COc1ccc(S(=O)(=O)N2Cc3ccccc3C[C@H]2COCC(=O)N2CCC(CCN3CCCC3)CC2)cc1 [Example 182, (S)-2-((2-(4-methoxyphenylsulfonyl)-1,2,3,4-tetrahydroisoquinolin-3-yl)methoxy)-1-(4-(2-(pyrrolidin-1-yl)ethyl)piperidin-1-yl)ethanone] | 99.7% | 91.1% | – | –
19 | O=C(COC[C@@H]1Cc2ccccc2CN1S(=O)(=O)c1ccc(Cl)cc1Cl)N1CCC(CCN2CCCC2)CC1 [Example 183, (S)-2-((2-(2,4-dichlorophenylsulfonyl)-1,2,3,4-tetrahydroisoquinolin-3-yl)methoxy)-1-(4-(2-(pyrrolidin-1-yl)ethyl)piperidin-1-yl)ethanone] | 96.9% | 100% | – | –
20 | CN1CCC(CN2CCN(C(=O)COC[C@@H]3Cc4ccccc4CN3S(=O)(=O)c3ccc(Cl)cc3Cl)CC2)CC1 [Example 184, (S)-2-((2-(2,4-dichlorophenylsulfonyl)-1,2,3,4-tetrahydroisoquinolin-3-yl)methoxy)-1-(4-((1-methylpiperidin-4-yl)methyl)piperazin-1-yl)ethanone] | 99% | 105% | – | –
21 | COc1cc(C)c(S(=O)(=O)N2Cc3ccccc3C[C@H]2COCC(=O)N2CCN(CC3CCN(C)CC3)CC2)c(C)c1 [Example 185, (S)-2-((2-(4-methoxy-2,6-dimethylphenylsulfonyl)-1,2,3,4-tetrahydroisoquinolin-3-yl)methoxy)-1-(4-((1-methylpiperidin-4-yl)methyl)piperazin-1-yl)ethanone] | 97.9% | 105% | – | –
22 | COc1cc(C)c(S(=O)(=O)N2CCCC[C@H]2COCC(=O)N2CCC(Oc3ccncc3)CC2)c(C)c1 [Example 186, (S)-2-((1-(4-methoxy-2,6-dimethylphenylsulfonyl)piperidin-2-yl)methoxy)-1-(4-(pyridin-4-yloxy)piperidin-1-yl)ethanone hydrochloride] | 97.1% | 106% | – | –
